Results: patent publication US20250099455A1, “TREATMENT FOR CONGESTIVE HEART FAILURE” (FibroGen, Inc., priority 2022, published 2025)
“Also recorded” adds a separate entry of the source. Read-outs that look alike come from different tables or passages of the source.

Key:
PK profile in rats = type: in vivo, rat
global ischemia = experiment: Acute cardioprotection: left ventricular function and coronary flow after global ischemia
PHD1 = PHD1 (Homo sapiens (Human), UniProt Q96KS0); experiment: HIF-PH assay (14CO2 capture), PHD1; type: biochemical
Sequence of PHD1 (Q96KS0 whole entry, species assumed): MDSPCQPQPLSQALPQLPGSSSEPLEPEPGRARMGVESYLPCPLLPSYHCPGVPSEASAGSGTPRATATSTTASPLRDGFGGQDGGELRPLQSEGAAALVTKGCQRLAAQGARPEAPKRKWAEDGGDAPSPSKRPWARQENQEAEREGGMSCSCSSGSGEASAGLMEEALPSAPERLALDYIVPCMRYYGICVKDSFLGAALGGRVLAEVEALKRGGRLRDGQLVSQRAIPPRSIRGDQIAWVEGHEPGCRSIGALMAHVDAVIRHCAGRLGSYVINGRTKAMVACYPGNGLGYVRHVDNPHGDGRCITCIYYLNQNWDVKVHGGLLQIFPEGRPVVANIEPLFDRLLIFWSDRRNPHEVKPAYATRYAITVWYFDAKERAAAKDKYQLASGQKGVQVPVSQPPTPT
From the text: The selectivity profile for the compound of Formula I can be determined using, for example, any assay familiar and commonly accessible to those skilled in the art, e.g., the following HIF-PH assay.
Ketoglutaric acid α-[1-^14C]-sodium salt, alpha-ketoglutaric acid sodium salt, and HPLC purified peptide may be obtained from commercial sources, e.g., Perkin-Elmer (Wellesley MA), Sigma-Aldrich, and SynPep Corp. (Dublin CA), respectively. Peptides for use in the assay may be fragments of HIFα as described above or as disclosed in International Publication WO 2005/118836, incorporated by reference herein. HIF-PH, e.g., PHD1 (EGLN2) or PHD2 (EGLN1), can be expressed in, e.g., insect Hi5 cells, and partially purified, e.g., through a SP ion exchange chromatography column. Enzyme activity is determined by capturing ^14CO2 using an assay described by Kivirikko and Myllyla (1982, Methods Enzymol. 82:245-304). Assay reactions contain 50 mM HEPES (pH 7.4), 100 μM α-ketoglutaric acid sodium salt, 0.30 μCi/mL ketoglutaric acid α-[1-^14C]-sodium salt, 40 μM FeSO4, 1 mM ascorbate, 1541.8 units/mL Catalase, with or without 50 µM peptide substrate and various concentrations of compound of the invention. Reactions are initiated by addition of HIF-PH enzyme. IC50 (compound concentration for 50% inhibition of enzyme activity) of the compounds for each enzyme can be determined.
The peptide-dependent percent turnover is calculated by subtracting percent turnover in the absence of peptide from percent turnover in the presence of substrate peptide. Percent inhibition and IC50 are calculated using peptide-dependent percent turnover at given inhibitor concentrations. Calculation of IC50 values for each inhibitor is conducted using GraFit software (Erithacus Software Ltd., Surrey UK). IC50 of test compound for PHD1 and for PHD2 and/or PHD3 can be readily determined using the above method, and used to assess the selectivity of the compound for inhibition of PHD1.

[1] = test system: congestive heart failure subsequent to myocardial infarction; experiment: Rat CHF subsequent to myocardial infarction, delayed treatment (Example 2); type: in vivo
Protocol: The effect of delayed treatment with the compound of Formula I on cardiac function in congestive heart failure (CHF) was studied by inducing CHF subsequent to MI. Four groups of rats (n=11-12) were subjected to MI by 30 minute ligation of the left coronary artery followed by reperfusion. In a sham group, rats underwent a similar surgical procedure except that the left coronary artery was not occluded. Cardiac function was measured in one group at 28 days post-MI (Baseline). In the remaining MI groups, dosing with vehicle or test article was initiated on Day 28. Rats were orally dosed every other day with vehicle, 6 mg/kg or 20 mg/kg compound from day 28 until day 54 post-MI. At 56 days post-MI, cardiac function, heart weight and complete blood count (CBC) were measured. • Male Sprague Dawley rats • Ligation of left coronary artery for 30 minutes followed by reperfusion • Post-ligation recovery for 28 days • Cardiac function 28 days after ischemia-reperfusion using a Millar pressure-volume catheter inserted in the left ventricle via the carotid artery • Record pressure-volume loops over several cardiac cycles and derived cardiac function parameters

[2] = Tissue distribution in mice; type: in vivo, mouse; conditions: for Compound of Formula 1 (μg/mL or μg/g): male Swiss Webster mice, single iv dose 60 mg/kg; for Kp at 4 h / Kp at 8 h: male, Swiss Webster, mouse, mice, single iv 60 mg/kg, read-out: Tissue/plasma ratio
Protocol: • N=3/time point, male Swiss Webster mice, single iv dose, 60 mg/kg Compound of Formula I

PK profile in monkeys = type: in vivo, monkey; conditions: for bioavailability: po
[3] = test system: congestive heart failure subsequent to myocardial infarction; experiment: Acute myocardial ischemia induced HF, duration of administration (regimens); type: in vivo, rat
[4] = delayed administration, 6, 20 mg/kg QOD, 4 weeks
[5] = delayed: 6 or 20 mg/kg oral QOD day 28-54 post-MI, 56 days post-MI
[6] = delayed: 6 or 20 mg/kg oral QOD day 28-54 post-MI, 56 days post-MI, vs vehicle
[7] = both sexes, monkey, in vivo, oral, monkeys, males and females
[8] = both sexes, monkey, in vivo, monkeys, males and females
[9] = in vivo, monkey, PK summary table
[10] = 20 mg/kg daily for 7, 14 or 28 days

Compound: CC(C)(CC(=O)O)NC(=O)c1nc(C#N)c2cc(Oc3ccccc3)ccc2c1O [Formula I, 3-[(1-cyano-4-hydroxy-7-phenoxy-isoquinoline-3-carbonyl)-amino]-3-methyl-butyric acid]
- Tmax (PK profile in rats; in vivo, oral, rat, PK summary table): 5 to 6 h
- Sex difference in PK (PK profile in rats; rat): No
- Accumulation (after multiple dosing) (PK profile in rats; rat, 4 wk GLP TK): Yes (4 wk
- Dose proportional (PK profile in rats; rat, 10-150 mg/kg): Yes
- clearance (PK profile in rats; rat, in vivo, PK summary table): 0.367 to 0.667 mL/min/kg
- half-life (PK profile in rats; rat, in vivo, PK summary table, mostly): 5 to 6 h
- half-life (PK profile in rats; rat, in vivo, PK summary table, some longer): 10 to 15 h
- bioavailability (PK profile in rats; rat, in vivo, po, rats, read-out: Oral bioavailability (Oral % F)): ~78%
- AUC(0-inf) (PK profile in rats; rat, in vivo, rats): 1080 ± 328 µg·h/mL
- AUC(0-t) (PK profile in rats; rat, in vivo, rats): 1010 ± 268 µg·h/mL
- Cmax (PK profile in rats; rat, in vivo, rats): 91 ± 12 µg/mL
- Tmax (PK profile in rats; rat, in vivo, rats): 6.7 ± 1.2 h
- clearance (PK profile in rats; rat, in vivo, rats): 0.367 mL/min/kg
- half-life (PK profile in rats; rat, in vivo, rats): 5 ± 1.3 h
- Vd (PK profile in rats; rat, in vivo, rats, read-out: Vss): 0.123 ± 0.056 L/kg
- Accumulation (after multiple dosing) (PK profile in rats; rat, once daily dosing 2 weeks): Unclear
- CL relative to hepatic blood flow rate (PK profile in rats; rats): lower than hepatic blow flow rate
- Vss relative to plasma volume (PK profile in rats; rats): higher than plasma volume
- coronary flow (global ischemia): improved
- left ventricular function (global ischemia): improved
- left ventricular function (LVDP) (global ischemia): improved
- left ventricular function (LVEP) (global ischemia): improved
- IC50 (PHD1; Table 1): 0.91 µM
- IC50 (PHD1; additional experiment, Table 1A): 0.7 µM
- PHD2/PHD1 (PHD1; ratio IC50 PHD2/IC50 PHD1, additional experiment, Table 1A): 24
- diastolic function [1, 4]: Some improvement in diastolic
- systolic function [1, 4]: improved systolic function (ejection
- cardiac hypertrophy [1, 5]: improved; also recorded: Some improvement in diastolic
- dPdtmax [1, 5]: improved
- end-diastolic volume [1, 5]: improved
- hematocrit [1, 5]: no significant effect; also recorded: no erythropoietic effect
- hemoglobin level [1, 5]: no significant effect; also recorded: no erythropoietic effect
- relaxation time [1, 5]: improved; also recorded: improvement
- ejection fraction [1, 6]: significantly improved; also recorded: improvement; also recorded: fraction improved at both doses)
- end-systolic volume [1, 6]: significantly improved; also recorded: improvement
- cardiac contractility ([1]; started 28 days after MI, every other day for 28 days): improvement
- Compound of Formula 1 (μg/mL or μg/g) ([2]; Colon, 4 h post dose): 12.9 ± 2.7 μg/mL or μg/g
- Compound of Formula 1 (μg/mL or μg/g) ([2]; Colon, 8 h post dose): 16.1 ± 6.3 μg/mL or μg/g
- Compound of Formula 1 (μg/mL or μg/g) ([2]; Duodenum, 4 h post dose): 19.1 ± 5.6 μg/mL or μg/g
- Compound of Formula 1 (μg/mL or μg/g) ([2]; Duodenum, 8 h post dose): 21.8 ± 4.1 μg/mL or μg/g
- Compound of Formula 1 (μg/mL or μg/g) ([2]; Heart, 4 h post dose): 10.4 ± 4.6 μg/mL or μg/g
- Compound of Formula 1 (μg/mL or μg/g) ([2]; Heart, 8 h post dose): 7.4 ± 2.1 μg/mL or μg/g
- Compound of Formula 1 (μg/mL or μg/g) ([2]; Kidney, 4 h post dose): 9.2 ± 3.4 μg/mL or μg/g
- Compound of Formula 1 (μg/mL or μg/g) ([2]; Kidney, 8 h post dose): 7.2 ± 1.9 μg/mL or μg/g
- Compound of Formula 1 (μg/mL or μg/g) ([2]; Liver, 4 h post dose): 40.2 ± 7.2 μg/mL or μg/g
- Compound of Formula 1 (μg/mL or μg/g) ([2]; Liver, 8 h post dose): 38.4 ± 4.6 μg/mL or μg/g
- Compound of Formula 1 (μg/mL or μg/g) ([2]; Plasma, 4 h post dose): 56.6 ± 10.6 μg/mL or μg/g
- Compound of Formula 1 (μg/mL or μg/g) ([2]; Plasma, 8 h post dose): 43.3 ± 11.0 μg/mL or μg/g
- Kp at 4 h ([2]; Colon, 4 h post dose): 0.23
- Kp at 8 h ([2]; Colon, 8 h post dose): 0.37
- Kp at 4 h ([2]; Duodenum, 4 h post dose): 0.34
- Kp at 8 h ([2]; Duodenum, 8 h post dose): 0.5
- Kp at 4 h ([2]; Heart, 4 h post dose): 0.18
- Kp at 8 h ([2]; Heart, 8 h post dose): 0.17
- Kp at 4 h ([2]; Kidney, 4 h post dose): 0.16
- Kp at 8 h ([2]; Kidney, 8 h post dose): 0.17
- Kp at 4 h ([2]; Liver, 4 h post dose): 0.71
- Kp at 8 h ([2]; Liver, 8 h post dose): 0.89
- Kp at 4 h ([2]; Plasma, 4 h post dose): 1
- Kp at 8 h ([2]; Plasma, 8 h post dose): 1
- Cmax (PK profile in monkeys; [7]): 10.9 ± 3.7 µg/mL
- Tmax (PK profile in monkeys; [7]): 2.6 ± 1.6 h
- AUC(0-inf) (PK profile in monkeys; [8]): 180 ± 68 µg·h/mL
- AUC(0-t) (PK profile in monkeys; [8]): 176 ± 67 µg·h/mL
- clearance (PK profile in monkeys; [8]): 0.433 mL/min/kg
- half-life (PK profile in monkeys; [8]): 34.6 ± 9.5 h
- Vd (PK profile in monkeys; both sexes, monkey, in vivo, monkeys, males and females, read-out: Vss): 0.184 ± 0.028 L/kg
- Tmax (PK profile in monkeys; in vivo, oral, monkey, PK summary table): ~1 h
- clearance (PK profile in monkeys; [9]): 0.517 to 0.667 mL/min/kg
- half-life (PK profile in monkeys; [9]): 22 to 36 h
- Systemic clearance compared with other species (PK profile in monkeys; monkey vs rats (slower than CL in dogs)): comparable to those in rats
- Dose proportional (PK profile in monkeys; monkey, 10-60 mg/kg): Yes
- Accumulation (after multiple dosing) (PK profile in monkeys; monkey, daily dosing, compared to Day 1 exposure): 2-3 fold higher
- bioavailability (PK profile in monkeys; monkey, in vivo, monkeys, read-out: Oral bioavailability (Oral % F)): 36 to 48%
- bioavailability (PK profile in monkeys; monkey, in vivo, monkeys, read-out: Oral bioavailability, group mean): 42 to 47%
- Dose proportional (PK profile in monkeys; monkey, up to 150 mg/kg): less than dose
- Dose proportionality of compound exposure (PK profile in monkeys; monkeys): increased dose proportionally
- Vss relative to plasma volume (PK profile in monkeys; monkeys): higher than plasma volume
- Sex difference in PK (PK profile in monkeys; monkeys, compound exposure or key PK parameters): no marked sex difference and No
- collagen deposition [3, 10]: All regimens reduced collagen
- diastolic function [3, 10]: 14 and 28 days regimens improved
- systolic function [3, 10]: 14 and 28 days regimens improved
- cardiac hypertrophy ([3]; 20 mg/kg daily, 14 and 28 days regimens): reduced cardiac hypertrophy
